Results as given in patent US20070123571A1, “Use of a compound in the treatment of sleep disorders” (priority 2003, published 2007).
Structures can show the parent of a compound that is named as a salt.

Columns and labels:
[1] = Loughborough sleep log, morning log: awoke refreshed / quality of sleep responses; format: in vivo, human
Description: Typically, the percentage of individuals who, after taking a dose of triprolidine before sleeptime, wake refreshed after sleeping is in the range 1-100%, more typically, 5-70%, most typically 10-35%. An especially typical range as aforesaid is 15-30% or even more especially 20-30%. Typically, by the terms “waking refreshed” or “wake refreshed” is meant that an individual felt at least refreshed on waking, preferably, the terms are defined as the individual felt very refreshed or refreshed in accordance with the Loughborough sleep log.
The degree of refreshedness and quality of sleep may be determined by the “morning” log of the Loughborough sleep log with the highest degree of refreshedness or quality of sleep being represented as 1 and the lowest being represented as 5. Accordingly, the percentage increase in refreshedness or quality of sleep is measured in this context by the decrease in the mean refreshedness or quality of sleep.
Preferably, by the use of the present invention, the response of awakening very refreshed or refreshed, as determined, for instance, by the morning log of the Loughborough sleep log, is improved by at least 20%, more preferably, by at least, 30%, most preferably by at least 40%, as compared with an equivalent dose of placebo.
Preferably, by the use of the present invention, the response of sleeping extremely well or very well, as determined, for instance, in accordance with the morning log of the Loughborough sleep log, is improved by at least 20%, more preferably, at least, 35%, most preferably at least 50%, as compared with an equivalent dose of placebo.
Preferably, by the use of the present invention, the response of sleeping extremely well or very well, as determined, for instance, in accordance with the morning log of the Loughborough sleep log, is found for at least 20% of individuals, more preferably, at least 25%, most preferably, at least 30%. For example over 35% of individuals had such a response.

[2] = Karolinska 9-point scale: alertness / sleepiness on waking; format: in vivo, human
Description: By the term felt alert is meant that an individual felt at least alert on waking. Preferably, the term is defined as the individual felt alert, very alert or extremely alert in accordance with the Karolinska 9-point scale. By the term felt sleepy is meant that an individual felt sleepy on waking. Preferably, the term is defined as the individual felt sleepy or very sleepy in accordance with points 8 or 9 of the Karolinska 9-point scale. Preferably, by the use of the present invention, the response of feeling extremely alert, very alert or alert as determined, for instance, in accordance with the Karolinska 9-point scale, is improved by at least 2%, more preferably, by at least, 5%, most preferably by at least 10%, as compared with an equivalent dose of placebo. Preferably, by the use of the present invention, the response of feeling sleepy and needing to make some effort to stay awake or very sleepy, as determined, for instance, in accordance with points 8 and 9 of the Karolinska 9 point scale, is improved (i.e. decreased) by at least 2%, more preferably, by at least, 4%, most preferably, by at least 10%, as compared with an equivalent dose of placebo.

[3] = single doses 10 mg or 20 mg sustained release at bedtime, volunteers, compared with placebo; cited from earlier work

With Cc1ccc(/C(=C\CN2CCCC2)c2ccccn2)cc1 [TRP•HCl•H2O] the “Loughborough Sleep Log: Awoke Very Refreshed or Refreshed Responses” value ([1]; 2.5 mg dose, Monday) was 23%, the “Loughborough Sleep Log: Last Night I Slept Extremely Well or Very Well Responses” value ([1]; 2.5 mg dose, Monday) was 41.4% and the “Loughborough Sleep Log: Awoke Very Refreshed or Refreshed Responses” value ([1]; 2.5 mg dose, Tuesday) was 23%. For the same compound, the “Loughborough Sleep Log: Last Night I Slept Extremely Well or Very Well Responses” value ([1]; 2.5 mg dose, Tuesday) was 41.8%, the “Loughborough Sleep Log: Awoke Very Refreshed or Refreshed Responses” value ([1]; 2.5 mg dose, Wednesday) was 25.8% and the “Loughborough Sleep Log: Last Night I Slept Extremely Well or Very Well Responses” value ([1]; 2.5 mg dose, Wednesday) was 37.9%. The “Loughborough Sleep Log: Awoke Very Refreshed or Refreshed Responses” value ([1]; 5 mg dose, Monday) was 11.5%, the “Loughborough Sleep Log: Last Night I Slept Extremely Well or Very Well Responses” value ([1]; 5 mg dose, Monday) was 50.9% and the “Loughborough Sleep Log: Awoke Very Refreshed or Refreshed Responses” value ([1]; 5 mg dose, Tuesday) was 8.2%. For the same compound, the “Loughborough Sleep Log: Last Night I Slept Extremely Well or Very Well Responses” value ([1]; 5 mg dose, Tuesday) was 28.8%, the “Loughborough Sleep Log: Awoke Very Refreshed or Refreshed Responses” value ([1]; 5 mg dose, Wednesday) was 14.8% and the “Loughborough Sleep Log: Last Night I Slept Extremely Well or Very Well Responses” value ([1]; 5 mg dose, Wednesday) was 39.3%. The “(b) I feel (i) sleepy, [and need to make] some effort or (ii) very sleepy, a great effort to keep awake” value (shortened to “(b) I feel (i) sleepy”) ([2]; 2.5 mg dose, Monday) was 11.5%, the “Karolinska 9-point scale (a) I feel extremely alert, very alert or alert” value (from here on “Karolinska 9-point scale”) ([2]; 2.5 mg dose, Monday) was 21.3% and the “(b) I feel (i) sleepy” value ([2]; 2.5 mg dose, Tuesday) was 13.1%. The “Karolinska 9-point scale” value ([2]; 2.5 mg dose, Tuesday) was 21.3%, the “(b) I feel (i) sleepy” value ([2]; 2.5 mg dose, Wednesday) was 6.5% and the “Karolinska 9-point scale” value ([2]; 2.5 mg dose, Wednesday) was 21.0%. For the same compound, the “(b) I feel (i) sleepy” value ([2]; 5 mg dose, Monday) was 12.5%, the “Karolinska 9-point scale” value ([2]; 5 mg dose, Monday) was 6.3% and the “(b) I feel (i) sleepy” value ([2]; 5 mg dose, Tuesday) was 17.5%. For the same compound, the “Karolinska 9-point scale” value ([2]; 5 mg dose, Tuesday) was 9.5%, the “(b) I feel (i) sleepy” value ([2]; 5 mg dose, Wednesday) was 12.7% and the “Karolinska 9-point scale” value ([2]; 5 mg dose, Wednesday) was 17.5%. The “sleep onset latency (time required to fall asleep)” value [3] was “did not significantly alter”, the total sleep time [3] was “no effect” and the wakefulness during sleep [3] was “no effect”.
